Results taken from US12723063B2, “GIPR-agonist compounds” (Eli Lilly and Company, priority 2019, dated 2026).
*1 amine or outer side, *2 acyl side, *3 side chain or, on linkers, in order; H or OH if unused. Where a SMILES comes first, the peptide text is derived from it. Side-chain parts run from the residue outwards. [ ]: non-standard residue; d: D form. The star is where a group is joined. C20 diacid = O=C(O)CCCCCCCCCCCCCCCCCCC(=O)*; C18 diacid = O=C(O)CCCCCCCCCCCCCCCCC(=O)*; γGlu = O=C(O)[C@H](CCC(=O)[*:2])N[*:1]; αMeY = C[C@](N)(Cc1ccc(O)cc1)C(=O)O; 4Pal = N[C@@H](Cc1ccncc1)C(=O)O; αMeL = CC(C)C[C@](C)(N)C(=O)O; Iva = CC[C@](C)(N)C(=O)O; Orn = NCCC[C@H](N)C(=O)O; AEEA = NCCOCCOCC(=O)O; Aib = CC(C)(N)C(=O)O

What was measured:
[1] = biological target: T1, human glucagon receptor (GcgR) (Homo sapiens, UniProt P47871); experiment: cAMP functional assay (HTRF) in HEK293 cells in presence of 0.1% casein; assay type: cell-based; conditions: HEK293 cells expressing human GcgR, geometric mean, read-out: hGcgR cAMP Rel EC50 nM (SEM, n)
T1 construct: expressed in transfected cells; host or cells: HEK293

[2] = biological target: T2, human GLP-1 receptor (GLP-1R) (Homo sapiens, UniProt P43220); experiment: as above; assay type: cell-based; conditions: HEK293 cells expressing human GLP-1R, geometric mean, read-out: hGLP1R cAMP Rel EC50 nM (SEM, n)
T2 construct: expressed in transfected cells; host or cells: HEK293

human GcgR = biological target: T3, human GcgR (Homo sapiens, UniProt P47871); experiment: [125I]-Glucagon binding, SPA with WGA beads, 0.1% bacitracin; conditions: geometric mean, read-out: hGcgR Ki
T3 construct: expressed in transfected cells; crude membranes
How it was run: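 SPA competition binding with WGA beads on crude membranes from HEK293 cells stably expressing hGcgR. Buffer: 25 mM HEPES pH 7.4, 2.5 mM CaCl2, 1 mM MgCl2, 0.1% bacitracin, 0.003% Tween-20; 10-point 3-fold dilutions, NSB with 1 μM Gcg.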

T2 sequence (P43220 24-463): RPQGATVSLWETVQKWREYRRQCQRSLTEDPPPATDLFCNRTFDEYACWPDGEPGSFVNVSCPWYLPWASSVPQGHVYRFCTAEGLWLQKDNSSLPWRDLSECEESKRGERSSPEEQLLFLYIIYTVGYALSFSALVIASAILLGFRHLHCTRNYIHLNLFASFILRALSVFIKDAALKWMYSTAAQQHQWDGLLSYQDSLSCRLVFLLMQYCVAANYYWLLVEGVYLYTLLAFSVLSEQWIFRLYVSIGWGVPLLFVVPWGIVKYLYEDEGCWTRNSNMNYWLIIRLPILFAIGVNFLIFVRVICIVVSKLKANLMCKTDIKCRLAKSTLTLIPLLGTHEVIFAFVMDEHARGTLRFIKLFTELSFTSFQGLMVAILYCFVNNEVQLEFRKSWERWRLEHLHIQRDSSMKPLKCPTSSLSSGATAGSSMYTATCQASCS
T1 sequence (P47871 26-477): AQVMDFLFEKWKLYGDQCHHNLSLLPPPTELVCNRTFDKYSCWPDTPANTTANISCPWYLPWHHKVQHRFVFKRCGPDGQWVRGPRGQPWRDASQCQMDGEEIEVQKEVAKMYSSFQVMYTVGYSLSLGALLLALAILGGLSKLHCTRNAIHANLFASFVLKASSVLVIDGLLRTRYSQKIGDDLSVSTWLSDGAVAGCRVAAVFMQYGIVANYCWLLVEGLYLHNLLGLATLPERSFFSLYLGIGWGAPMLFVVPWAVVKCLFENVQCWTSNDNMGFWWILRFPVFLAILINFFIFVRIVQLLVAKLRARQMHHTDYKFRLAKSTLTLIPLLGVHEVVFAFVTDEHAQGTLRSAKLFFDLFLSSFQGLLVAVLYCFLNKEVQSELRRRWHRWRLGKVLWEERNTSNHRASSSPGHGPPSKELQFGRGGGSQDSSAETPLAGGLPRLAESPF
T3 sequence (P47871 26-477): as above

With `CC[C@H](C)[C@H](NC(=O)[C@H](CO)NC(=O)[C@H](Cc1ccc(O)cc1)NC(=O)[C@H](CC(=O)O)NC(=O)[C@H](CO)NC(=O)[C@@H](NC(=O)[C@H](Cc1ccccc1)NC(=O)[C@@H](NC(=O)CNC(=O)[C@H](CCC(=O)O)NC(=O)C(C)(C)NC(=O)[C@@H](N)Cc1ccc(O)cc1)[C@@H](C)O)[C@@H](C)CC)C(=O)N[C@@H](C)C(=O)N[C@@H](CC(C)C)C(=O)N[C@@H](CC(=O)O)C(=O)N[C@@H](CCCCN)C(=O)N[C@@H](CCCCNC(=O)COCCOCCNC(=O)COCCOCCNC(=O)CC[C@H](NC(=O)CCCCCCCCCCCCCCCCC(=O)O)C(=O)O)C(=O)N[C@@H](Cc1c[nH]cn1)C(=O)N[C@@H](CCC(N)=O)C(=O)NC(C)(C)C(=O)N[C@@H](CC(=O)O)C(=O)N[C@@H](Cc1ccccc1)C(=O)N[C@H](C(=O)N[C@@H](CCC(=O)O)C(=O)N[C@@H](Cc1ccncc1)C(=O)N[C@@H](CC(C)C)C(=O)N[C@@H](CC(C)C)C(=O)N[C@@H](C)C(=O)NCC(=O)NCC(=O)N1CCC[C@H]1C(=O)N[C@@H](CO)C(=O)N[C@@H](CO)C(=O)NCC(=O)N[C@@H](C)C(=O)N1CCC[C@H]1C(=O)N1CCC[C@H]1C(=O)N1CCC[C@H]1C(=O)N[C@@H](CO)C(N)=O)C(C)C` [Example 21] (H-Y[Aib]EGTFISDYSIALDKK([AEEA-AEEA-γGlu-C18 diacid])HQ[Aib]DFVE[4Pal]LLAGGPSSGAPPPS-NH2) the EC50 [1] was > 5000 nM, the EC50 [2] was > 5000 nM and the Ki (human GcgR) was > 1530 nM.

For `CC[C@H](C)[C@H](NC(=O)[C@H](CO)NC(=O)[C@H](Cc1ccc(O)cc1)NC(=O)[C@H](CC(=O)O)NC(=O)[C@H](CO)NC(=O)[C@@H](NC(=O)[C@](C)(CC)NC(=O)[C@@H](NC(=O)CNC(=O)[C@H](CCC(=O)O)NC(=O)C(C)(C)NC(=O)[C@@H](N)Cc1ccc(O)cc1)[C@@H](C)O)[C@@H](C)CC)C(=O)N[C@@](C)(CC(C)C)C(=O)N[C@@H](CC(C)C)C(=O)N[C@@H](CC(=O)O)C(=O)N[C@@H](CCCN)C(=O)N[C@@H](CCCCNC(=O)COCCOCCNC(=O)COCCOCCNC(=O)CC[C@H](NC(=O)CCCCCCCCCCCCCCCCCCC(=O)O)C(=O)O)C(=O)N[C@@H](Cc1c[nH]cn1)C(=O)N[C@@H](CCC(N)=O)C(=O)NC(C)(C)C(=O)N[C@@H](CC(=O)O)C(=O)N[C@@H](Cc1ccccc1)C(=O)N[C@H](C(=O)N[C@@H](CCC(=O)O)C(=O)N[C@@H](Cc1ccncc1)C(=O)N[C@@H](CC(C)C)C(=O)N[C@@H](CC(C)C)C(=O)N[C@@H](CCC(=O)O)C(=O)NCC(=O)NCC(=O)N1CCC[C@H]1C(=O)N[C@@H](CO)C(=O)N[C@@H](CO)C(=O)NCC(=O)N[C@@H](C)C(=O)N1CCC[C@H]1C(=O)N1CCC[C@H]1C(=O)N1CCC[C@H]1C(=O)N[C@@H](CO)C(N)=O)C(C)C` [Example 76] (H-Y[Aib]EGT[Iva]ISDYSI[αMeL]LD[Orn]K([AEEA-AEEA-γGlu-C20 diacid])HQ[Aib]DFVE[4Pal]LLEGGPSSGAPPPS-NH2), the EC50 [1] was 1200 nM, the EC50 [2] was > 5000 nM and the Ki (human GcgR) was 358 nM.

In the case of `CC[C@H](C)[C@H](NC(=O)[C@H](CO)NC(=O)[C@H](Cc1ccc(O)cc1)NC(=O)[C@H](CC(=O)O)NC(=O)[C@H](CO)NC(=O)[C@@H](NC(=O)[C@H](Cc1ccccc1)NC(=O)[C@@H](NC(=O)CNC(=O)[C@H](CCC(=O)O)NC(=O)[C@@H](C)NC(=O)[C@@H](N)Cc1ccc(O)cc1)[C@@H](C)O)[C@@H](C)CC)C(=O)N[C@@H](CC(C)C)C(=O)N[C@@H](CC(C)C)C(=O)N[C@@H](CC(=O)O)C(=O)N[C@@H](CCCCN)C(=O)N[C@@H](CCCCNC(=O)COCCOCCNC(=O)COCCOCCNC(=O)CC[C@H](NC(=O)CCCCCCCCCCCCCCCCC(=O)O)C(=O)O)C(=O)N[C@@H](C)C(=O)N[C@@H](CCC(N)=O)C(=O)NC(C)(C)C(=O)N[C@@H](CCC(=O)O)C(=O)N[C@@H](Cc1ccccc1)C(=O)N[C@H](C(=O)N[C@@H](CC(N)=O)C(=O)N[C@@H](Cc1c[nH]c2ccccc12)C(=O)N[C@@H](CC(C)C)C(=O)N[C@@H](CC(C)C)C(=O)N[C@@H](C)C(=O)N[C@@H](CCC(N)=O)C(=O)NCC(=O)N1CCC[C@H]1C(=O)N[C@@H](CO)C(=O)N[C@@H](CO)C(=O)NCC(=O)N[C@@H](C)C(=O)N1CCC[C@H]1C(=O)N1CCC[C@H]1C(=O)N1CCC[C@H]1C(=O)N[C@@H](CO)C(N)=O)C(C)C` [Example 20] (H-Y[dA]EGTFISDYSILLDKK([AEEA-AEEA-γGlu-C18 diacid])AQ[Aib]EFVNWLLAQGPSSGAPPPS-NH2), the EC50 [1] is reported as > 5000 nM, the EC50 [2] is reported as > 5000 nM and the Ki (human GcgR) is reported as 216 nM.

In the case of `CC[C@H](C)[C@H](NC(=O)[C@H](Cc1ccccc1)NC(=O)[C@@H](NC(=O)CNC(=O)[C@H](CCC(=O)O)NC(=O)C(C)(C)NC(=O)[C@@H](N)Cc1ccc(O)cc1)[C@@H](C)O)C(=O)N[C@@H](CO)C(=O)N[C@@H](CC(=O)O)C(=O)N[C@@H](Cc1ccc(O)cc1)C(=O)N[C@@H](CO)C(=O)N[C@H](C(=O)N[C@@](C)(CC(C)C)C(=O)N[C@@H](CC(C)C)C(=O)N[C@@H](CC(=O)O)C(=O)N[C@@H](CCCCN)C(=O)N[C@@H](CCCCNC(=O)COCCOCCNC(=O)COCCOCCNC(=O)CC[C@H](NC(=O)CCCCCCCCCCCCCCCCCCC(=O)O)C(=O)O)C(=O)N[C@@H](Cc1c[nH]cn1)C(=O)N[C@@H](CCC(N)=O)C(=O)NC(C)(C)C(=O)N[C@@H](CC(=O)O)C(=O)N[C@@H](Cc1ccccc1)C(=O)N[C@H](C(=O)N[C@@H](CCC(=O)O)C(=O)N[C@@](C)(Cc1ccc(O)cc1)C(=O)N[C@@H](CC(C)C)C(=O)N[C@@H](CC(C)C)C(=O)N[C@@H](CCC(=O)O)C(=O)N[C@@H](C)C(=O)NCC(=O)N1CCC[C@H]1C(=O)N[C@@H](CO)C(=O)N[C@@H](CO)C(=O)NCC(=O)N[C@@H](C)C(=O)N1CCC[C@H]1C(=O)N1CCC[C@H]1C(=O)N1CCC[C@H]1C(=O)N[C@@H](CO)C(N)=O)C(C)C)[C@@H](C)CC` [Example 90] (H-Y[Aib]EGTFISDYSI[αMeL]LDKK([AEEA-AEEA-γGlu-C20 diacid])HQ[Aib]DFVE[αMeY]LLEAGPSSGAPPPS-NH2), the EC50 [1] is reported as > 5000 nM, the EC50 [2] is reported as > 5000 nM and the Ki (human GcgR) is reported as 112 nM.

With `CC[C@H](C)[C@H](NC(=O)[C@H](CO)NC(=O)[C@H](Cc1ccc(O)cc1)NC(=O)[C@H](CC(=O)O)NC(=O)[C@H](CO)NC(=O)[C@@H](NC(=O)[C@](C)(CC)NC(=O)[C@@H](NC(=O)CNC(=O)[C@H](CCC(=O)O)NC(=O)C(C)(C)NC(=O)[C@@H](N)Cc1ccc(O)cc1)[C@@H](C)O)[C@@H](C)CC)C(=O)N[C@@](C)(CC(C)C)C(=O)N[C@@H](CC(C)C)C(=O)N[C@@H](CC(=O)O)C(=O)N[C@@H](CCCCN)C(=O)N[C@@H](CCCCNC(=O)COCCOCCNC(=O)COCCOCCNC(=O)CC[C@H](NC(=O)CCCCCCCCCCCCCCCCCCC(=O)O)C(=O)O)C(=O)N[C@@H](Cc1c[nH]cn1)C(=O)N[C@@H](CCC(N)=O)C(=O)NC(C)(C)C(=O)N[C@@H](CC(=O)O)C(=O)N[C@@H](Cc1ccccc1)C(=O)N[C@H](C(=O)N[C@@H](CCC(=O)O)C(=O)N[C@@H](Cc1ccncc1)C(=O)N[C@@H](CC(C)C)C(=O)N[C@@H](CC(C)C)C(=O)N[C@@H](CCC(=O)O)C(=O)NCC(=O)NCC(=O)N1CCC[C@H]1C(=O)N[C@@H](CO)C(=O)N[C@@H](CO)C(=O)NCC(=O)N[C@@H](C)C(=O)N1CCC[C@H]1C(=O)N1CCC[C@H]1C(=O)N1CCC[C@H]1C(=O)N[C@@H](CO)C(N)=O)C(C)C` [Example 74] (H-Y[Aib]EGT[Iva]ISDYSI[αMeL]LDKK([AEEA-AEEA-γGlu-C20 diacid])HQ[Aib]DFVE[4Pal]LLEGGPSSGAPPPS-NH2) the EC50 [1] was 627 nM, the EC50 [2] was > 5000 nM and the Ki (human GcgR) was 511 nM.
